Reference: patent US20090098189A1, “AZAINDOLES AS INHIBITORS OF SOLUBLE ADENYLATE CYCLASE” (priority 2007, published 2009)

Key:
[1] = target: soluble, sperm-specific adenylate cyclase (sAC) (Homo sapiens, UniProt Q96PN6); assay: sAC assay (HTRF cAMP detection); format: biochemical; details: read-out: IC50 (inhibition of soluble adenylate cyclase)
Source text: In a suitable buffer system, soluble, sperm-specific adenylate cyclase catalyzes the conversion of adenosine triphosphate (ATP) to cyclic adenosine monophosphate (cAMP) and pyrophosphate. Free cAMP generated in this way is then used in a competitive detection technique, in which the binding of a europium cryptate Eu[K]-labeled anti-cAMP antibody (anti-cAMP-Eu[K]-AB) to a modified allophycocyanine-1 molecule labeled with cAMP molecules (cAMP-XL665) is prevented. In the absence of exogenous cAMP, after excitation at 335 nm there is Fluorescence Resonance Energy Transfer (FRET) between the anti-cAMP-Eu[K]-AB (FRET donor) and the cAMP-XL665 molecule (FRET acceptor). This process is quantified, time-resolved, on the basis of the emission of the FRET acceptor XL665 (665 nm and 620 nm). A decrease in signal (measured as Well Ratio; calculated from the Formula: [(E665 nm/E620 nm)×10000]) can be attributed to the presence of cAMP and thus to the activity of sAC. First, 1.5 μl of the test substance (in 30% DMSO) is placed in each well of a 384-well test plate (polystyrene; 384, NV), and in the solvent controls only 30% DMSO. Then 10 μl of a dilute sAC enzyme solution is applied (enzyme stock solution in 300 mM NaCl, 10% glycerol; pH 7.6; enzyme intermediate and final dilution a) 1:10 and b) 1:2000 in each case in: 1.0 mM MnCl2; 0.2% BSA; 50 mM Tris pH 7.5 in H2O). The enzyme reaction is started by adding 5 μl of the ATP substrate solution (200 μM ATP in H2O) and after incubation (25 min at room temperature) stopped by adding 5 μl of the stop solution (200 μM EDTA in PBS). Finally the whole reaction is adjusted to a total volume of 91.5 μl by adding 70 μl PBS.
Next, 8 μl of detection solution 1 is placed in a well of the 384-well measuring plate (measuring plate: polystyrene; 384, SV—black; detection solution 1: 50 μl cAMP-XL665; 950 μl reconstituted buffer; 2200 μl PBS; cAMP-XL665: prepared by adding 5 ml H2O to the lyophilized product according to the instructions in Cis bio Kit: #62AMPPEC; storage: in aliquots at −80° C.). Next, 3 μl from the 91.5 μl is added to the corresponding well of the test plate. Finally, 8 μl of detection solution 2 is added (detection solution 2: 50 μl anti-cAMP-Eu[K]-AB; 950 μl reconstituted buffer; 2200 μl PBS; anti-cAMP-Eu[K]-AB: prepared according to the instructions in Cis bio Kit: #62AMPPEC; storage: in aliquots at −80° C.).
After further incubation for 90 min at room temperature, the HTRF result is measured either on the Packard Discovery or with the RubiStar HTRF measuring instrument (delay: 50 μs; integration time: 400 μs).

[2] = known from the literature; cited from earlier work

Sequence of soluble, sperm-specific adenylate cyclase (sAC) (Q96PN6 whole entry): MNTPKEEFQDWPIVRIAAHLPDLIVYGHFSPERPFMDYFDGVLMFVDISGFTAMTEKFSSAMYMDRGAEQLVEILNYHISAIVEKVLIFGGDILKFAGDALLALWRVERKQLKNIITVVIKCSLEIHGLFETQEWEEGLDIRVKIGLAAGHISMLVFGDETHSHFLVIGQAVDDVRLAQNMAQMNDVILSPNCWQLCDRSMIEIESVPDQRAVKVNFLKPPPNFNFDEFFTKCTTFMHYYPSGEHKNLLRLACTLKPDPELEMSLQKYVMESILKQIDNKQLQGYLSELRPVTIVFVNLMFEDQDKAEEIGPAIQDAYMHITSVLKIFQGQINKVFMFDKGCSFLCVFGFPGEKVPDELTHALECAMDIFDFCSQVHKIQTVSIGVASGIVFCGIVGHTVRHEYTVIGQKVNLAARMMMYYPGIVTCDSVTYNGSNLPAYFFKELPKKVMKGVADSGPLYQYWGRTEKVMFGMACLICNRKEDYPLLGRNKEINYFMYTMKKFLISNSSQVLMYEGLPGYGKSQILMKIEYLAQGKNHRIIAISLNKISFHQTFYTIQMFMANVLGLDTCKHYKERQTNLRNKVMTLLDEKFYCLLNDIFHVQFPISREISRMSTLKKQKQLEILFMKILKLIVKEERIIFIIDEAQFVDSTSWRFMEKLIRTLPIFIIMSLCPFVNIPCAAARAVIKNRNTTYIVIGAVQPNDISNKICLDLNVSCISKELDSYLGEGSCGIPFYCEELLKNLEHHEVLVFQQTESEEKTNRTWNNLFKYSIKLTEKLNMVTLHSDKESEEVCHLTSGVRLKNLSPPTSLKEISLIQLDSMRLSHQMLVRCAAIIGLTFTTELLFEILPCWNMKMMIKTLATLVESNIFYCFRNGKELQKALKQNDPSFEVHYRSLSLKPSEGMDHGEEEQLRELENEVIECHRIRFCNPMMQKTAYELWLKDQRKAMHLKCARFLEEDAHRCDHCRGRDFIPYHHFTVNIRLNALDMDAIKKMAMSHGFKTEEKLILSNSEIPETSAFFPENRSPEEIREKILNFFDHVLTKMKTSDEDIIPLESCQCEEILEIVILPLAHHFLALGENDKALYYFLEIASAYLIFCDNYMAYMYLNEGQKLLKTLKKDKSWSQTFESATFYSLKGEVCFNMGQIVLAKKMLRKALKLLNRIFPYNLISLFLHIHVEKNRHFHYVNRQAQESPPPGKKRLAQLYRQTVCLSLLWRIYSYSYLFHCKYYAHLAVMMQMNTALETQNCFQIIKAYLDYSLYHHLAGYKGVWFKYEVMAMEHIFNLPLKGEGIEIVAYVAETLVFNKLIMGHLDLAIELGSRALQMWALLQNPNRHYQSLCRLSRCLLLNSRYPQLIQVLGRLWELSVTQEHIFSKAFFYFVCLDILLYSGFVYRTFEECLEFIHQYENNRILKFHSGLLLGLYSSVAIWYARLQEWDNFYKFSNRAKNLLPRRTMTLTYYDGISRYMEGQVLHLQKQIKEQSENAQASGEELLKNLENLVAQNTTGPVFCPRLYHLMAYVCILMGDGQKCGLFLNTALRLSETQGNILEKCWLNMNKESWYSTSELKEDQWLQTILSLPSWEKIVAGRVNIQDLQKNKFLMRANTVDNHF

Structure (SMILES)	IC50 [1] [nM]	toxicity [2]
O=C(N[C@H]1CCC[C@H]1O)c1[nH]c2ncc(NS(=O)(=O)c3ccc(C(F)(F)F)cc3)cc2c1-c1ccccc1 [Example 22, (1S,2R)—N-(2-Hydroxycyclopentyl)-3-phenyl-5-(4-trifluoromethyl-phenylsulfonylamino)-1H-pyrrolo[2,3-b]pyridine-2-carboxamide]	25	
Cc1cc2c(C(C)C)c(O)c(O)c(C=O)c2c(O)c1-c1c(C)cc2c(C(C)C)c(O)c(O)c(C=O)c2c1O [gossypol]		inherently toxic

Second part, led by results:

IC50 [1] [nM]	Structure (SMILES)	toxicity [2]
37	CC(CO)NC(=O)c1[nH]c2ncc(NS(=O)(=O)c3ccc(C(C)(C)C)cc3)cc2c1-c1ccccc1 (racemic) [Example 6, (±)-N-(2-Hydroxy-1-methylethyl)-5-(4-tert-butylphenylsulfonyl-amino)-3-phenyl-1H-pyrrolo[2,3-b]pyridine-2-carboxamide]	
64	CC(C)(C)c1ccc(S(=O)(=O)Nc2cnc3[nH]c(C(=O)NCC4CCCO4)c(-c4ccccc4)c3c2)cc1 (racemic) [Example 10, (±)-N-(Tetrahydrofuran-2-ylmethyl)-5-(4-tert-butylphenylsulfonyl-amino)-3-phenyl-1H-pyrrolo[2,3-b]pyridine-2-carboxamide]	
13	CC(C)(C)c1ccc(S(=O)(=O)Nc2cnc3[nH]c(C(=O)N[C@H]4CCC[C@H]4O)c(-c4ccccc4)c3c2)cc1 [Example 8, (1S,2R)—N-(2-Hydroxycyclopentyl)-5-(4-tert-butylphenylsulfonyl-amino)-3-phenyl-1H-pyrrolo[2,3-b]pyridine-2-carboxamide]	
